Activity calls are given as the source filed them.
Assays:
[1] = Displacement of [3H]-DTG from sigma-2 receptor in guinea pig brain membrane incubated for 1 hr by liquid scintillation counting method; assay type: cell membranes, Cavia porcellus
[2] = target: T1, Sigma intracellular receptor 2 (Homo sapiens, UniProt Q5BJF2); assay: Displacement of [3H]-DTG from sigma-2 receptor in human Jurkat cell membrane incubated for 1 hr by liquid scintillation counting method; assay type: cell membranes
[3] = target: T2, Sigma non-opioid intracellular receptor 1 (Cavia porcellus, UniProt Q60492); assay: Displacement of [3H]-(+)-pentazocine from sigma-1 receptor in guinea pig brain membranes incubated for 1 hr by liquid scintillation counting method; assay type: cell membranes, Membrane
[4] = target: T3, Sigma non-opioid intracellular receptor 1 (Homo sapiens, UniProt Q99720); assay: Displacement of [3H]-pentazocine from sigma-1 receptor in human Jurkat cell membrane incubated for 2 hr by liquid scintillation counting method; assay type: cell membranes
[5] = Metabolic stability in rat liver microsomes assessed as half-life at 10 uM incubated for 1 hr in presence of NADPH by LC-MS/MS analysis; assay type: ADME, Microsome
[6] = Intrinsic clearance in rat liver microsomes at 10 uM incubated for 1 hr in presence of NADPH by LC-MS/MS analysis; assay type: ADME, Microsome; conditions: read-out: CLH
[7] = Metabolic stability in human liver microsomes assessed as half-life at 10 uM incubated for 1 hr in presence of NADPH by LC-MS/MS analysis; assay type: ADME, Microsome
[8] = Intrinsic clearance in human liver microsomes at 10 uM incubated for 1 hr in presence of NADPH by LC-MS/MS analysis; assay type: ADME, Microsome; conditions: read-out: CLH
[9] = target: T1, Sigma intracellular receptor 2; assay: Displacement of [3H]-DTG from sigma-2 receptor in human Jurkat cell membrane at 1000 nM incubated for 1 hr by liquid scintillation counting method relative to control; assay type: cell membranes; conditions: filed as antagonist
[10] = target: T3, Sigma non-opioid intracellular receptor 1; assay: Displacement of [3H]-pentazocine from sigma-1 receptor in human Jurkat cell membrane at 100 nM incubated for 2 hr by liquid scintillation counting method relative to control; assay type: cell membranes
[11] = MRT (0 to infinity) in Sprague-Dawley rat plasma at 10 mg/kg, ip after 0.25 to 4 hrs by LC-MS/MS analysis; assay type: ADME, organism-based; conditions: time 0.25-4 hrs
[12] = Half life in Sprague-Dawley rat plasma at 10 mg/kg, ip measured after 0.25 to 4 hrs by LC-MS/MS analysis; assay type: ADME, organism-based; conditions: time 0.25-4 hrs
[13] = Toxicity in Sprague-Dawley rat assessed as effect on motor coordination at 10 to 20 mg/kg, ip measured at 30 to 120 mins post treatment by rotarod test; assay type: organism-based; conditions: in vivo, dose lower 10 mg/kg, time lower 30 min, dose upper 20 mg/kg, time upper 120 min
[14] = AUC (0 to 4 hrs) in Sprague-Dawley rat plasma at 10 mg/kg, ip after 0.25 to 4 hrs by LC-MS/MS analysis; assay type: ADME, organism-based; parameters: route intraperitoneal, dose 10 mg/kg, time upper 4 hrs, time lower 0.25 hrs
Rattus norvegicus [15] = assay: Antinociceptive activity in formalin-induced Sprague-Dawley rat model of nociceptive pain assessed as decrease in time spent on licking during late phase at 20 to 40 mg/kg, ip administered 30 mins before formalin stimulation and measured at 5 mins interval for 10 to 35 mins; assay type: functional, organism-based; conditions: dose 20-40 mg/kg
[16] = target: Kappa-type opioid receptor (Homo sapiens) (UniProt P41145); assay: Displacement of [3H]-Diprenorphine from recombinant human full-length kappa opiod receptor expressed in human HEK293 cells at 1 uM incubated for 60 mins by scintillation counting method; assay type: cell-based
[17] = Cmax in Sprague-Dawley rat plasma at 10 mg/kg, ip measured after 0.25 to 4 hrs by LC-MS/MS analysis; assay type: ADME, organism-based; parameters: route intraperitoneal, time upper 4 hrs, time lower 0.25 hrs, dose 10 mg/kg
hERG (KCNH2) = hERG (KCNH2) (Homo sapiens, UniProt Q12809); assay: Binding affinity to human ERG at 1 uM relative to control; assay type: cell-based; conditions: HEK293 cells, read-out: Activity
[18] = target: Sigma non-opioid intracellular receptor 1 (Cavia porcellus) (UniProt Q60492); assay: Ratio of Ki for displacement of [3H]-(+)-pentazocine from sigma-1 receptor to Ki for displacement of [3H]-(+)-pentazocine from sigma-1 receptor in guinea pig brain membranes in presence of phenytoin; assay type: cell membranes; conditions: Membrane
Rattus norvegicus [19] = assay: Antinociceptive activity in formalin-induced Sprague-Dawley rat model of nociceptive pain assessed as decrease in time spent on licking during acute phase at 40 mg/kg, ip administered 30 mins before formalin stimulation and measured at 5 mins interval for 10 mins; assay type: functional, organism-based; conditions: time 40.0 min
[20] = Tmax in Sprague-Dawley rat plasma at 10 mg/kg, ip measured after 0.25 to 4 hrs by LC-MS/MS analysis; assay type: ADME, organism-based; conditions: time 0.25-4 hrs
[21] = target: Delta-type opioid receptor (Homo sapiens) (UniProt P41143); assay: Displacement of [3H]-Naltrindole from recombinant human full-length delta opiod receptor expressed in human HEK293 cells at 1 uM incubated for 60 mins by scintillation counting method; assay type: cell-based
[22] = AUC (0 to infinity) in Sprague-Dawley rat plasma at 10 mg/kg, ip after 0.25 to 4 hrs by LC-MS/MS analysis; assay type: ADME, organism-based; parameters: route intraperitoneal, time 0.25-4 hrs, dose 10 mg/kg
Rattus norvegicus [23] = assay: Analgesic activity in Sprague-Dawley rat model of paclitaxel-induced neuropathic pain assessed as reduction in cold hyperalgesia by measuring increase in paw withdrawal latency at 20 to 40 mg/kg, ip measured at 1 to 2 hrs post dosing by Von Frey assay relative to control; assay type: functional; parameters: scale not given: the % may be the effect or the level left; conditions: dose 20-40 mg/kg, time 1-2 hrs
Rattus norvegicus [24] = assay: Analgesic activity in Sprague-Dawley rat model of paclitaxel-induced neuropathic pain assessed as decrease in mechanical allodynia by measuring reduction in pain threshold at 20 mg/kg, ip measured at 0.5 to 1.5 hrs by Von Frey assay relative to control; assay type: functional; parameters: scale not given: the % may be the effect or the level left; conditions: time 0.5-1.5 hrs
[25] = target: T2, Sigma non-opioid intracellular receptor 1
[26] = Ratio of drug concentration in brain to plasma in Sprague-Dawley rat at 10 mg/kg, ip by LC-MS/MS analysis; assay type: ADME, organism-based; conditions: read-out: BPR
[27] = target: Mu-type opioid receptor (Homo sapiens) (UniProt P35372); assay: Displacement of [3H]-Diprenorphine from recombinant human full-length mu opiod receptor expressed in […] cells at 1 uM incubated for 60 mins by scintillation counting method; assay type: cell-based; conditions: HEK293
Rattus norvegicus [28] = assay: Analgesic activity in Sprague-Dawley rat model of paclitaxel-induced neuropathic pain assessed as reduction in cold hyperalgesia by measuring increase in paw withdrawal latency at 100 mg/kg, ip measured at 1 to 2 hrs post dosing by Von Frey assay relative to control; assay type: functional, organism-based; conditions: time 1-2 hrs
Rattus norvegicus [29] = assay: Analgesic activity in Sprague-Dawley rat model of paclitaxel-induced neuropathic pain assessed as decrease in mechanical allodynia by measuring reduction in pain threshold at 100 mg/kg, ip measured at 0.5 to 1.5 hrs by Von Frey assay relative to control; assay type: functional, organism-based; conditions: time 0.5-1.5 hrs
Rattus norvegicus [30] = assay: Antinociceptive activity in formalin-induced Sprague-Dawley rat model of nociceptive pain assessed as decrease in time spent on licking during late phase at 100 mg/kg, ip administered 30 mins before formalin stimulation and measured at 5 mins interval for 10 to 35 mins; assay type: functional, organism-based
[31] = Toxicity in Sprague-Dawley rat assessed as effect on motor coordination at 100 mg/kg, ip measured at 60 to 120 mins post treatment by rotarod test; assay type: organism-based; conditions: in vivo, time 60-120 min

T2 sequence (Q60492 whole entry): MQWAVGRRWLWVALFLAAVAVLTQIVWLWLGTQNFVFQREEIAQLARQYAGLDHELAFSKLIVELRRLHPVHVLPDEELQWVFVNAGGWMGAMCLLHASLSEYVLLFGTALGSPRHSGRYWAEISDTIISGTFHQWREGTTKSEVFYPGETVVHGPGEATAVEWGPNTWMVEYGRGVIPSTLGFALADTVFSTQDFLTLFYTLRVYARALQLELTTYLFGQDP
T1 sequence (Q5BJF2 whole entry): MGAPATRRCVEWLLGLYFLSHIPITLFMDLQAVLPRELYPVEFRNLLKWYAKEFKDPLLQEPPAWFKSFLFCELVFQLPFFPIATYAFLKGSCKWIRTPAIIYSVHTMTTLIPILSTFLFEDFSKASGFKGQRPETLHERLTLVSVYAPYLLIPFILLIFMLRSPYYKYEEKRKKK
T3 sequence (Q99720 whole entry): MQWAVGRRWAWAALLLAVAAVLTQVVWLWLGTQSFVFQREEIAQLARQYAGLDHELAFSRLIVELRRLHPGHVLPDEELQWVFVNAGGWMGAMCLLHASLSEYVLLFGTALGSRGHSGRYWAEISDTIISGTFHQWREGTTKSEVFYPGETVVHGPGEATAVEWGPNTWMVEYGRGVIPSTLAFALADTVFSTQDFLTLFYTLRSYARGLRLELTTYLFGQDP
Chain of Sigma non-opioid intracellular receptor 1 (Cavia porcellus) (Q60492 whole entry): as the sequence (Q60492 whole entry) above
Chain of Kappa-type opioid receptor (Homo sapiens) (P41145 whole entry): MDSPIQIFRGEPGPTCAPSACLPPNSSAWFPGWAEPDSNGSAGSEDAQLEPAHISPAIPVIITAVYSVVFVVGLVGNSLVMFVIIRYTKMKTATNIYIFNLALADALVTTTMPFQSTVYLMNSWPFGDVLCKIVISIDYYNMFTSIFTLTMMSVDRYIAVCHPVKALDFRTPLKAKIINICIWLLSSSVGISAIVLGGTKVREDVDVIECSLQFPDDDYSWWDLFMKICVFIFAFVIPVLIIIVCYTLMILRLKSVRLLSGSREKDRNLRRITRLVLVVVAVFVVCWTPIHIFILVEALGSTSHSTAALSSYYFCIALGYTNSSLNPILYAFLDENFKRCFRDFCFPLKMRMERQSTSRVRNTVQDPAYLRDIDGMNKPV
Chain of Delta-type opioid receptor (Homo sapiens) (P41143 whole entry): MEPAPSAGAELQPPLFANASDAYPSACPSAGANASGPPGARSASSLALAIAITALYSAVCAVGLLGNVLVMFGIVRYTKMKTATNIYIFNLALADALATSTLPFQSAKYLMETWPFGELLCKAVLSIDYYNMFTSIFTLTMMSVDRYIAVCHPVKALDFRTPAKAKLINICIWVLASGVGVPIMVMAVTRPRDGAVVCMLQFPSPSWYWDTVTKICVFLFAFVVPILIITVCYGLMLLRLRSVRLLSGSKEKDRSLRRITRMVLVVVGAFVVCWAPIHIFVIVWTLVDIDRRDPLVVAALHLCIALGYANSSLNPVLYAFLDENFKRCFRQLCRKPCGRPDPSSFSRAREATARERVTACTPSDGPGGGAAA
Chain of Mu-type opioid receptor (Homo sapiens) (P35372 whole entry): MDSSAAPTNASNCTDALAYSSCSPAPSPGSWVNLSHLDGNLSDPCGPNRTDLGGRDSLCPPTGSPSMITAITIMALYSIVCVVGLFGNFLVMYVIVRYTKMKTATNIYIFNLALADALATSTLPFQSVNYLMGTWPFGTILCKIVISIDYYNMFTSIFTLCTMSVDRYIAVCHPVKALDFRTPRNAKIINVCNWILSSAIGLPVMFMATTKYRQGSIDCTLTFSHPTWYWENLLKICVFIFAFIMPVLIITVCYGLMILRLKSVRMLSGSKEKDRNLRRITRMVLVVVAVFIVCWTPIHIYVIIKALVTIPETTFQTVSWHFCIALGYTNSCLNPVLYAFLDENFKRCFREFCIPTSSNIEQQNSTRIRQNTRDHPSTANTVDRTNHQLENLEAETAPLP
Chain of hERG (KCNH2) (Q12809 whole entry): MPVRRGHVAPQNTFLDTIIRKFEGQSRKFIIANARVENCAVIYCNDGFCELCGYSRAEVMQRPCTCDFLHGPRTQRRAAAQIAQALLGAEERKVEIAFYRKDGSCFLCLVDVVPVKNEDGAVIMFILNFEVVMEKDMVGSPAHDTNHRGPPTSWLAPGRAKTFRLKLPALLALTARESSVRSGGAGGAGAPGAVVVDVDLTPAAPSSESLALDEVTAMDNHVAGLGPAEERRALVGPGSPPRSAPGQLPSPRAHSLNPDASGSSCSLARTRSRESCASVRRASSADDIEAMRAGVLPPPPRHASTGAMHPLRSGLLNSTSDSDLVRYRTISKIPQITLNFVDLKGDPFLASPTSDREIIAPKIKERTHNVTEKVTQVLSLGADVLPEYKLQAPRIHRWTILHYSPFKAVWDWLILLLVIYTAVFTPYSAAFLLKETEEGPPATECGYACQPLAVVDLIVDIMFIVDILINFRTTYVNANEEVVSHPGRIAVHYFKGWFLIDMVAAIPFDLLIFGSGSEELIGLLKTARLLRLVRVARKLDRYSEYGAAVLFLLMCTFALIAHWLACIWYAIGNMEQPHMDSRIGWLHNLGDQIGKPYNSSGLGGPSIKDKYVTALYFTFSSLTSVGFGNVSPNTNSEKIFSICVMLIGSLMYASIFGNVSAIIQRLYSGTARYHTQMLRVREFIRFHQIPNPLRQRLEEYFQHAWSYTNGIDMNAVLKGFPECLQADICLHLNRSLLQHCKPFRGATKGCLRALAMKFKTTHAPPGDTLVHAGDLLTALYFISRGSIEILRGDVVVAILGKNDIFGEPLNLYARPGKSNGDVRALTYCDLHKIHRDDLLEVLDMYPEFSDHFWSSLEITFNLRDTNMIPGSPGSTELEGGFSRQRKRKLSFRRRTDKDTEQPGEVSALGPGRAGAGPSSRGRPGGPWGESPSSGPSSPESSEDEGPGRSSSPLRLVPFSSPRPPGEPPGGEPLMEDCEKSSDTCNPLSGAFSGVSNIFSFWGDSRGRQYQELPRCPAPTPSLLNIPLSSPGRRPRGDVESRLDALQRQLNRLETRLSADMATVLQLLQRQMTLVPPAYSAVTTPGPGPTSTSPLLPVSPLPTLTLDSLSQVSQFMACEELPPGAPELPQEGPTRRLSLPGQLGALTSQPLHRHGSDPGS

Cn1nc(CN2CCN(CCc3ccccc3)CC2)nc1-c1ccc(C(C)(C)C)cc1
Ki [1]: 14 nM | Ki [2]: 17 nM | Ki [3]: 10 nM | Ki [4]: 49 nM

Cn1nc(CN2CCN(c3ccccc3)CC2)nc1-c1ccc(C(C)(C)C)cc1
half-life at 10 µM [5]: 23.3 min | Ki [1]: > 1000 nM | microsomal CLint at 10 µM [6]: 29.8 µL/min/mg | half-life at 10 µM [7]: 37.3 min | microsomal CLint at 10 µM [8]: 18.6 µL/min/mg | Ki [3]: 14 nM

Cn1nc(CN2CCCC2)nc1-c1ccc(C2CCCCC2)cc1
Activity [9]: 89% | Ki [4]: 20 nM

Cn1nc(CN2CCCC2)nc1-c1cccc(C2(C(F)(F)F)CC2)c1
half-life at 10 µM [5]: 4.8 min | microsomal CLint at 10 µM [6]: 144 µL/min/mg | half-life at 10 µM [7]: 87.6 min | microsomal CLint at 10 µM [8]: 7.9 µL/min/mg

CN1CCN(Cc2nc(-c3ccc(C(C)(C)C)cc3)n(C)n2)CC1
Ki [1]: > 1000 nM

Cc1ncc2n1-c1ccc(Cl)cc1C(c1ccccc1F)=NC2 [MIDAZOLAM]
half-life at 10 µM [5]: 2.4 min | microsomal CLint at 10 µM [6]: 293 µL/min/mg | half-life at 10 µM [7]: 2.6 min | microsomal CLint at 10 µM [8]: 263 µL/min/mg

Cn1nc(CN2CCOCC2)nc1-c1ccc(C(C)(C)C)cc1
Ki [1]: > 1000 nM

Cn1nc(CN2CCCC2)nc1-c1cccc(-c2ccccc2)c1
Ki [2]: 1000 nM | Activity ([10]; filed as antagonist): 40%

Cn1nc(CN2CCCC2)nc1-c1ccc(C2CC2)cc1
Ki [2]: 1000 nM | Activity [10]: 30%

Cn1nc(CN2CCCC2)nc1-c1ccc(-c2ccccc2)cc1
Activity [9]: 60% | Ki [4]: 90 nM

Cn1nc(CN2CCCC2)nc1-c1ccc(C(C)(C)C)cc1
MRT inf [11]: 43.8 min | half-life [12]: 33.6 min | half-life at 10 µM [5]: 9.6 min | Activity [13]: Non-Toxic | AUC(0-t) [14]: 633 ng·h/mL | Activity (Rattus norvegicus [15]): Active | Ki [1]: 474 nM | Activity [16]: inactive | microsomal CLint at 10 µM [6]: 72 µL/min/mg | Cmax [17]: 932 ng/mL | half-life at 10 µM [7]: 120 min | microsomal CLint at 10 µM [8]: 5.8 µL/min/mg | activity at 1 µM (hERG (KCNH2)): 8.4% | Ratio Ki [18]: 0.8 | Activity (Rattus norvegicus [19]): Active | Tmax [20]: 15 min | Activity [21]: inactive | AUC(0-inf) [22]: 635 ng·h/mL | Activity (Rattus norvegicus [23]): 120% | Activity (Rattus norvegicus [24]): 180% | Ki [25]: 3.4 nM | Kp [26]: 12 | Ki [2]: > 1000 nM | Ki [3]: 2.7 nM | Activity [27]: inactive | Ki [4]: 7.5 nM

NCC1(CC(=O)O)CCCCC1 [GABAPENTIN]
Activity (Rattus norvegicus [28]): inactive | Activity (Rattus norvegicus [29]): Active | Activity (Rattus norvegicus [30]): Active | Activity [31]: Toxic

Cc1cc(OCCN2CCOCC2)nn1-c1ccc2ccccc2c1
half-life at 10 µM [5]: 3.6 min | Ki [1]: > 1000 nM | microsomal CLint at 10 µM [6]: 190 µL/min/mg | half-life at 10 µM [7]: 64.6 min | microsomal CLint at 10 µM [8]: 10.7 µL/min/mg | Ki [3]: 3 nM

Cn1nc(CN2CCCC2)nc1-c1ccc(C(F)(F)F)cc1
Ki [2]: > 1000 nM | Ki [4]: 82 nM

Cn1nc(CN2CCCC2)nc1-c1ccc(C2(C(F)(F)F)CC2)cc1
half-life at 10 µM [5]: 3.3 min | microsomal CLint at 10 µM [6]: 207 µL/min/mg | half-life at 10 µM [7]: 172 min | microsomal CLint at 10 µM [8]: 4 µL/min/mg

COc1ccc2c(c1)[C@]13CCCC[C@@H]1[C@H](C2)N(C)CC3 [DEXTROMETHORPHAN]
Ratio Ki [18]: 6.3 | Ki [25]: 10 nM | Ki [3]: 63 nM

Cn1nc(CN2CCCC2)nc1-c1cccc(Oc2ccccc2)c1
Ki [2]: > 1000 nM | Activity [10]: 21%

O=C(CCCN1CCC(O)(c2ccc(Cl)cc2)CC1)c1ccc(F)cc1 [HALOPERIDOL]
Ki [1]: 4.7 nM

Cn1nc(CN2CCCC2)nc1-c1ccc(Cl)cc1
Ki [2]: > 1000 nM | Activity [10]: 31%
